Tested on: chimera RXFP2-1 (extracellular domain of RXFP2, transmembrane domain of RXFP1)
Experiment: HTRF cAMP assay in HEK293T cells transiently transfected with chimera RXFP2-1
Type: cell-based, human
From the text: To further investigate the involvement of the RXFP2 extracellular and transmembrane domains in agonist activation of the receptor, two complementary chimeras were created using the RXFP1 receptor, which is not activated by the agonists of formula (I), to transiently transfect HEK293T cells and measured changes in cAMP induction using the HTRF assay.
Chimeric receptors were generated by IN-FUSION™ (Takara Bio USA, Inc., San Jose, CA) mutagenesis using full-length human RXFP1 and RXFP2 receptor constructs. Polymerase chain reaction (PCR) was performed using PfuTurbo high-fidelity DNA polymerase (Agilent Technologies, Santa Clara, CA) and overlapping primers with at least 15 bp sequence homology within the fusion site. PCR products were digested with Dpnl restricton enzyme at 37° C. overnight, run on a 0.8% agarose gel and purified using the GENEJET™ Gel extraction kit (Thermo Scientific, Waltham, MA). The purified DNA fragments were then ligated into the BamHI and XhoI pre-digested pcDNA3.1™/Zeo(+) AmpR mammalian expression vector using the In-Fusion HD enzyme premix (Clontech, Mountain View, CA) at 50° C. for 15 minutes, and the resulting product was used to transform Stellar competent cells (Takara Bio USA, Inc., San Jose, CA). The clones were fully sequenced to confirm the correct fusion of both receptor fragments. Chimera RXFP2-1 contained the extracellular domain of RXFP2 and the transmembrane domain of RXFP1. Accordingly, chimera RXFP1-2 contained the extracellular domain of RXFP1 and the transmembrane domain of RXFP2.
HEK293T cells were seeded in 6-well flat-bottom clear plates at 0.5 million cells/well in 2 mL/well of growth medium (DMEM, 10% FBS, 1× Pen/Strep) and allowed to attach overnight at 37° C. and 5% CO2. The next morning, cells were transfected with 2 μg of plasmid (chimeric receptors, WT RXFP2, or WT RXFP1) and 6 μl of Lipofectamine2000 (Invitrogen, Waltham, MA) in a total volume of 200 μl/well OPTI-MEM™ I (Thermo Fisher, Waltham, MA) reduced serum medium and allowed to incubate an additional 24 hours. The next day, transfected cells were seeded in 96-well flat-bottom opaque plates at 30,000 cells/well in 60 μL/well of serum-free DMEM medium and allowed to attach overnight at 37° C. at 5% CO2. The next morning, cells were treated with 1 μL/well of compound (25 μM-0.25 nM), 2 μM forskolin, or DMSO vehicle. Cells were also treated with 4 μL of positive control INSL3 (100-0.01 nM), Relaxin2 (100-10 nM), or vehicle (serum-free DMEM+IBMX). Plates were incubated for 1 hour at 37° C. and 5% CO2, after which kit cAMP-d2 and anti-cAMP antibody were added as previously described. Cells were incubated for 1 hour at room temperature, and then the signal was read on a CLARIOstar plate reader (BMG Labtech, Germany).

Compound: O=C1Nc2ccc(-c3cc(C(F)(F)F)cc(C(F)(F)F)c3)cc2C(=O)N2CCN(C(=O)COc3ccc(OC(F)(F)F)cc3I)C[C@@H]12 [Example 187, (S)-8-(3,5-bis(trifluoromethyl)phenyl)-2-(2-(2-iodo-4-(trifluoromethoxy)phenoxy)acetyl)-1,3,4,12a-tetrahydrobenzo[e]pyrazino[1,2-a][1,4]diazepine-6,12 (2H, 11H)-dione]
- cAMP response of chimera RXFP2-1: no response

— patent US20250134907A1, “FUSED DIAZEPINES AS AGONISTS OF THE INSULIN-LIKE 3 (INSL3) PEPTIDE RECEPTOR RXFP2 AND METHODS OF USE THEREOF” (The United States of America,as represented by the …, priority 2022, published 2025)
